Bounds are passed on as bounds.

The source of these data is ChEMBL document CHEMBL2417513, “Selective activity of 2,4-diaryl-1,2,3,4-tetrahydroquinolines on Trypanosoma cruzi epimastigotes and amastigotes expressing β-galactosidase” (Bioorg Med Chem Lett, 2013).

For one data set, the system named is Trypanosoma cruzi. Briefly: Antiparasitic activity against epimastigotes of Trypanosoma cruzi CL Brener expressing Escherichia coli lacZ gene […] assessed as parasite growth inhibition at 32 uM after 72 hrs by colorimetric assay. Details: scale not given: the % may be the effect or the level left. It is filed as functional.
Details: not given
As for `COc1cc([C@@H]2c3cccc(C#N)c3N[C@H](c3ccccc3)[C@H]2C)ccc1O`, the Activity is 95.56%.

Take `COc1cc([C@@H]2c3cccc([N+](=O)[O-])c3N[C@H](c3ccc(O)cc3)[C@H]2C)ccc1O`: the Activity amounted to 99.73%.

Regarding `COc1cc([C@@H]2c3cccc(N)c3N[C@H](c3ccccc3)[C@H]2C)ccc1O`, the Activity is on record as 98.7%.

Regarding `COc1cc([C@@H]2c3cccc(C#N)c3N[C@H](c3ccc(O)cc3)[C@H]2C)ccc1O`, the Activity is recorded as 98.75%.

As for `COc1cc([C@@H]2c3cccc([N+](=O)[O-])c3N[C@H](c3ccc([N+](=O)[O-])cc3)[C@H]2C)ccc1O`, the Activity amounted to 92.82%.

In the case of `COc1cc([C@@H]2c3cccc([N+](=O)[O-])c3N[C@H](c3ccccc3[N+](=O)[O-])[C@H]2C)ccc1O`, the Activity is listed as 82.19%.

For the compound `COc1cc([C@@H]2c3cccc(C#N)c3N[C@H](c3ccc([N+](=O)[O-])cc3)[C@H]2C)ccc1O`, the Activity came out at 66.81%.

Take `COc1ccc([C@@H]2c3cc(OC)ccc3N[C@H](c3ccccc3)[C@H]2C)cc1`: the Activity is reported as 53.99%.

Regarding `COc1ccc([C@@H]2c3cc([N+](=O)[O-])ccc3N[C@H](c3ccccc3)[C@H]2C)cc1`, the Activity worked out at 76.03%.

In the case of `COc1ccc([C@@H]2c3cc(Cl)ccc3N[C@H](c3ccccc3)[C@H]2C)cc1`, the Activity is on record as 88.62%.

Regarding `COc1ccc([C@@H]2c3cccc([N+](=O)[O-])c3N[C@H](c3ccccc3)[C@H]2C)cc1`, the Activity was determined as 87.22%.

Regarding `COc1ccc([C@@H]2c3c(cccc3[N+](=O)[O-])N[C@H](c3ccccc3)[C@H]2C)cc1`, the Activity is listed as 78.69%.

Test system in a further data set: not listed separately
Briefly: Cytotoxicity against mouse NCTC-929 cells after 48 hrs by resazurin based fluorescence assay. The conditions noted are these: NCTC-929 cells, read-out: LC50. It is filed as cell-based. Background: Resazurin is reduced to fluorescent resorufin, in cell work by metabolically active cells.
In the case of `COc1cc([C@@H]2c3cccc(C#N)c3N[C@H](c3ccccc3)[C@H]2C)ccc1O`, the CC50 at 48 h was 7.75 µM.

`COc1cc([C@@H]2c3cccc([N+](=O)[O-])c3N[C@H](c3ccc(O)cc3)[C@H]2C)ccc1O`: the CC50 at 48 h turned out to be 14.4 µM.

As for `COc1cc([C@@H]2c3cccc(N)c3N[C@H](c3ccccc3)[C@H]2C)ccc1O`, the CC50 at 48 h was less than 8 µM.

Take `COc1cc([C@@H]2c3cccc(C#N)c3N[C@H](c3ccc(O)cc3)[C@H]2C)ccc1O`: the CC50 at 48 h was determined as 12.8 µM.

With `COc1cc([C@@H]2c3cccc([N+](=O)[O-])c3N[C@H](c3ccc([N+](=O)[O-])cc3)[C@H]2C)ccc1O`, the CC50 at 48 h was less than 8 µM.

`COc1cc([C@@H]2c3cccc([N+](=O)[O-])c3N[C@H](c3ccccc3[N+](=O)[O-])[C@H]2C)ccc1O`: the CC50 at 48 h was 15.9 µM.

Turning to `COc1cc([C@@H]2c3cccc(C#N)c3N[C@H](c3ccc([N+](=O)[O-])cc3)[C@H]2C)ccc1O`, the CC50 at 48 h is 213 µM.

As to `COc1ccc([C@@H]2c3cc(OC)ccc3N[C@H](c3ccccc3)[C@H]2C)cc1`, the CC50 at 48 h is greater than 256 µM.

Consider `COc1ccc([C@@H]2c3cc([N+](=O)[O-])ccc3N[C@H](c3ccccc3)[C@H]2C)cc1`, for which the CC50 at 48 h was 16 µM.

`COc1ccc([C@@H]2c3cccc([N+](=O)[O-])c3N[C@H](c3ccccc3)[C@H]2C)cc1`: the CC50 at 48 h was found to be 28.4 µM.

Take `COc1ccc([C@@H]2c3c(cccc3[N+](=O)[O-])N[C@H](c3ccccc3)[C@H]2C)cc1`: the CC50 at 48 h was 27.6 µM.

Staying with this data set, now noted: nctc-929, 48 h.
Turning to `COc1ccc([C@@H]2c3cc(Cl)ccc3N[C@H](c3ccccc3)[C@H]2C)cc1`, the LC50 result is reported as “ND(Insoluble)”.

Another data set has as its system Trypanosoma cruzi. Briefly: Antiparasitic activity against epimastigotes of Trypanosoma cruzi CL Brener expressing Escherichia coli lacZ gene […] assessed as parasite growth inhibition after 72 hrs by colorimetric assay.
Details: not given
Format: functional, organism-based.
By IC50 is commonly meant the concentration at which inhibition is half-maximal. For `COc1cc([C@@H]2c3cccc(C#N)c3N[C@H](c3ccccc3)[C@H]2C)ccc1O`, the IC50 came to 8.29 µM.

`COc1cc([C@@H]2c3cccc([N+](=O)[O-])c3N[C@H](c3ccc(O)cc3)[C@H]2C)ccc1O`: the IC50 was less than 8 µM.

Turning to `COc1cc([C@@H]2c3cccc(N)c3N[C@H](c3ccccc3)[C@H]2C)ccc1O`, the IC50 was less than 8 µM.

Turning to `COc1cc([C@@H]2c3cccc(C#N)c3N[C@H](c3ccc(O)cc3)[C@H]2C)ccc1O`, the half-maximal inhibitory concentration (IC50) was less than 8 µM.

On to `COc1cc([C@@H]2c3cccc([N+](=O)[O-])c3N[C@H](c3ccc([N+](=O)[O-])cc3)[C@H]2C)ccc1O`, for which the IC50 is less than 8 µM.

Turning to `COc1cc([C@@H]2c3cccc(C#N)c3N[C@H](c3ccc([N+](=O)[O-])cc3)[C@H]2C)ccc1O`, the IC50 came out at 4.38 µM.

On to `COc1ccc([C@@H]2c3cc(OC)ccc3N[C@H](c3ccccc3)[C@H]2C)cc1`, for which the IC50 is less than 8 µM.

Consider `COc1ccc([C@@H]2c3cc([N+](=O)[O-])ccc3N[C@H](c3ccccc3)[C@H]2C)cc1`, for which the IC50 was less than 8 µM.

Turning to `COc1ccc([C@@H]2c3cc(Cl)ccc3N[C@H](c3ccccc3)[C@H]2C)cc1`, the IC50 was found to be 7.86 µM.

As for `COc1ccc([C@@H]2c3c(cccc3[N+](=O)[O-])N[C@H](c3ccccc3)[C@H]2C)cc1`, the IC50 is less than 8 µM.

Test system in a further data set: not listed separately
Briefly: Selectivity index, ratio of LC50 for mouse NCTC-929 cells to IC50 for amastigotes of Trypanosoma cruzi CL Brener. It is filed as toxicity, cell-based. The conditions noted are these: read-out: Ratio LC50/IC50.
Regarding `COc1cc([C@@H]2c3cccc(C#N)c3N[C@H](c3ccc([N+](=O)[O-])cc3)[C@H]2C)ccc1O`, the selectivity ratio is 27.8.

Regarding `COc1ccc([C@@H]2c3cc(OC)ccc3N[C@H](c3ccccc3)[C@H]2C)cc1`, the selectivity ratio is greater than 32.

A further data set relates to Trypanosoma cruzi. The experiment in a line: Antiparasitic activity against amastigotes of Trypanosoma cruzi CL Brener expressing Escherichia coli lacZ gene infected in mouse NCTC-929 cells assessed as parasite growth inhibition after 7 days by colorimetric assay. It is filed as functional, organism-based. The conditions noted are these: NCTC-929, 168 h.
As to `COc1cc([C@@H]2c3cccc(C#N)c3N[C@H](c3ccc([N+](=O)[O-])cc3)[C@H]2C)ccc1O`, the IC50 is 7.66 µM.

Consider `COc1ccc([C@@H]2c3cc(OC)ccc3N[C@H](c3ccccc3)[C@H]2C)cc1`, for which the IC50 was less than 8 µM.

A further data set deals with Trypanosoma cruzi. The experiment in a line: Antiparasitic activity against amastigotes of Trypanosoma cruzi CL Brener expressing Escherichia coli lacZ gene infected in mouse NCTC-929 cells assessed as parasite growth inhibition at 4 uM after 7 days by colorimetric assay. Format: functional. Details: scale not given: the % may be the effect or the level left.
Details: not given
Consider `COc1cc([C@@H]2c3cccc(C#N)c3N[C@H](c3ccc([N+](=O)[O-])cc3)[C@H]2C)ccc1O`, for which the Activity is listed as 33.77%.

Test system in a further data set: not listed separately
The experiment in a line: Selectivity index, ratio of LC50 for mouse NCTC-929 cells to IC50 for epimastigotes of Trypanosoma cruzi CL Brener. Format: toxicity, cell-based. The following applies: read-out: Ratio LC50/IC50.
Consider `COc1cc([C@@H]2c3cccc(C#N)c3N[C@H](c3ccccc3)[C@H]2C)ccc1O`, for which the selectivity ratio was found to be 0.93.

As for `COc1cc([C@@H]2c3cccc([N+](=O)[O-])c3N[C@H](c3ccc(O)cc3)[C@H]2C)ccc1O`, the selectivity ratio was greater than 1.79.

Take `COc1cc([C@@H]2c3cccc(C#N)c3N[C@H](c3ccc(O)cc3)[C@H]2C)ccc1O`: the selectivity ratio came out at 1.59.

Take `COc1cc([C@@H]2c3cccc(C#N)c3N[C@H](c3ccc([N+](=O)[O-])cc3)[C@H]2C)ccc1O`: the selectivity ratio came out at 48.6.

Consider `COc1ccc([C@@H]2c3cc(OC)ccc3N[C@H](c3ccccc3)[C@H]2C)cc1`, for which the selectivity ratio was greater than 32.

`COc1ccc([C@@H]2c3cc([N+](=O)[O-])ccc3N[C@H](c3ccccc3)[C@H]2C)cc1`: the selectivity ratio is greater than 2.

For the compound `COc1ccc([C@@H]2c3c(cccc3[N+](=O)[O-])N[C@H](c3ccccc3)[C@H]2C)cc1`, the selectivity ratio was greater than 3.45.

The test system of the next data set is Trypanosoma cruzi. The experiment in a line: Antiparasitic activity against amastigotes of Trypanosoma cruzi CL Brener expressing Escherichia coli lacZ gene infected in mouse NCTC-929 cells assessed as parasite growth inhibition at 16 uM after 7 days by colorimetric assay.
Details: not given
Also noted: scale not given: the % may be the effect or the level left. Format: functional.
Take `COc1ccc([C@@H]2c3cc(OC)ccc3N[C@H](c3ccccc3)[C@H]2C)cc1`: the Activity was 60.71%.

Test system in another data set: not listed separately
The experiment in a line: Cytotoxicity against mouse NCTC-929 cells at 256 uM after 48 hrs by resazurin based fluorescence assay. It is filed as cell-based. The conditions noted are these: nctc-929, 48 h.
`COc1cc([C@@H]2c3cccc(C#N)c3N[C@H](c3ccccc3)[C@H]2C)ccc1O` yielded an Activity of 86.23%.

In turn, `COc1cc([C@@H]2c3cccc([N+](=O)[O-])c3N[C@H](c3ccc(O)cc3)[C@H]2C)ccc1O` displayed an Activity of 85.46%.

In the case of `COc1cc([C@@H]2c3cccc(N)c3N[C@H](c3ccccc3)[C@H]2C)ccc1O`, the Activity was 86.9%.

Consider `COc1cc([C@@H]2c3cccc(C#N)c3N[C@H](c3ccc(O)cc3)[C@H]2C)ccc1O`, for which the Activity is 85.83%.

As for `COc1cc([C@@H]2c3cccc([N+](=O)[O-])c3N[C@H](c3ccc([N+](=O)[O-])cc3)[C@H]2C)ccc1O`, the Activity is 87.71%.

As for `COc1cc([C@@H]2c3cccc([N+](=O)[O-])c3N[C@H](c3ccccc3[N+](=O)[O-])[C@H]2C)ccc1O`, the Activity entry is recorded as “ND(Insoluble)”.

`COc1cc([C@@H]2c3cccc(C#N)c3N[C@H](c3ccc([N+](=O)[O-])cc3)[C@H]2C)ccc1O` displayed an Activity of 48.76%.

The compound `COc1ccc([C@@H]2c3cc(OC)ccc3N[C@H](c3ccccc3)[C@H]2C)cc1` returned an Activity of 0%.

As for `COc1ccc([C@@H]2c3cc([N+](=O)[O-])ccc3N[C@H](c3ccccc3)[C@H]2C)cc1`, the Activity entry is “ND(Insoluble)”.

`COc1ccc([C@@H]2c3cc(Cl)ccc3N[C@H](c3ccccc3)[C@H]2C)cc1` registered an Activity of 11.72%.

Consider `COc1ccc([C@@H]2c3cccc([N+](=O)[O-])c3N[C@H](c3ccccc3)[C@H]2C)cc1`, for which the Activity result is on record as “ND(Insoluble)”.

As to `COc1ccc([C@@H]2c3c(cccc3[N+](=O)[O-])N[C@H](c3ccccc3)[C@H]2C)cc1`, the Activity entry was “ND(Insoluble)”.

Another data set relates to Trypanosoma cruzi. Briefly: Antiparasitic activity against amastigotes of Trypanosoma cruzi CL Brener expressing Escherichia coli lacZ gene infected in mouse NCTC-929 cells assessed as parasite growth inhibition at 8 uM after 7 days by colorimetric assay. It is filed as functional. Also noted: scale not given: the % may be the effect or the level left.
Details: not given
In the case of `COc1cc([C@@H]2c3cccc(C#N)c3N[C@H](c3ccc([N+](=O)[O-])cc3)[C@H]2C)ccc1O`, the Activity was determined as 51.5%.

On to `COc1ccc([C@@H]2c3cc(OC)ccc3N[C@H](c3ccccc3)[C@H]2C)cc1`, for which the Activity was 58.12%.
